Reference: PubChem BioAssay (NCI)
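A five-concentration, 48-hour dose response in 96-well plates underlies each endpoint, interpolated linearly between surrounding concentrations. GI50 is the concentration that inhibits growth by half. TGI marks complete inhibition of growth.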

Experiments:
Assay in all cases: NCI-60 cell line screen, 48 h
[1] = system: 786-0 renal
[2] = system: A498 renal
[3] = system: A549 NSCLC
[4] = system: ACHN renal
[5] = system: BT-549 breast
[6] = system: CCRF-CEM leukemia
[7] = system: COLO 205 colon
[8] = system: DU-145 prostate
[9] = system: HCC-2998 colon
[10] = system: HCT-116 colon
[11] = system: HCT-15 colon
[12] = system: HL-60(TB) leukemia
[13] = system: HOP-62 NSCLC
[14] = system: HOP-92 NSCLC
[15] = system: HS 578T breast
[16] = system: HT29 colon
[17] = system: IGROV1 ovarian
[18] = system: KM12 colon
[19] = system: LOX IMVI melanoma
[20] = system: M14 melanoma
[21] = system: MALME-3M melanoma
[22] = system: MCF7 breast
[23] = system: MDA-MB-231 breast
[24] = system: MDA-MB-435
[25] = system: MOLT-4 leukemia
[26] = system: NCI-H226 lung
[27] = system: NCI-H23 lung
[28] = system: NCI-H460 lung
[29] = system: NCI-H522 lung
[30] = system: NCI/ADR-RES ovarian
[31] = system: OVCAR-3 ovarian
[32] = system: OVCAR-4 ovarian
[33] = system: OVCAR-5 ovarian
[34] = system: OVCAR-8 ovarian
[35] = system: PC-3 prostate
[36] = system: RPMI-8226 leukemia
[37] = system: RXF 393 renal
[38] = system: SF-268 CNS
[39] = system: SF-295 CNS
[40] = system: SF-539 CNS
[41] = system: SK-MEL-2 melanoma
[42] = system: SK-MEL-28 melanoma
[43] = system: SK-MEL-5 melanoma
[44] = system: SK-OV-3 ovarian
[45] = system: SN12C renal
[46] = system: SNB-19 CNS
[47] = system: SNB-75 CNS
[48] = system: SW-620 colon
[49] = system: T-47D breast
[50] = system: TK-10 renal
[51] = system: U251 CNS
[52] = system: UACC-257 melanoma
[53] = system: UACC-62 melanoma
[54] = system: UO-31 renal

COc1ccc(OC)c(Nc2nc(-c3c(C)nc4sccn34)cs2)c1
GI50 [1]: 32.3 µM
TGI [1]: > 100 µM
GI50 [2]: 1.63 µM
TGI [2]: > 100 µM
GI50 [3]: > 100 µM
TGI [3]: > 100 µM
GI50 [4]: 38.6 µM
TGI [4]: > 100 µM
GI50 [5]: 11 µM
TGI [5]: > 100 µM
GI50 [6]: > 100 µM
TGI [6]: > 100 µM
GI50 [7]: > 100 µM
TGI [7]: > 100 µM
GI50 [8]: > 100 µM
TGI [8]: > 100 µM
GI50 [9]: > 100 µM
TGI [9]: > 100 µM
GI50 [10]: > 100 µM
TGI [10]: > 100 µM
GI50 [11]: > 100 µM
TGI [11]: > 100 µM
GI50 [12]: > 100 µM
TGI [12]: > 100 µM
GI50 [13]: 8.46 µM
TGI [13]: 63.4 µM
GI50 [14]: 8.63 µM
TGI [14]: 98.4 µM
GI50 [15]: 5.3 µM
TGI [15]: > 100 µM
GI50 [16]: > 100 µM
TGI [16]: > 100 µM
GI50 [17]: 23.2 µM
TGI [17]: > 100 µM
GI50 [18]: > 100 µM
TGI [18]: > 100 µM
GI50 [19]: > 100 µM
TGI [19]: > 100 µM
GI50 [20]: > 100 µM
TGI [20]: > 100 µM
GI50 [21]: > 100 µM
TGI [21]: > 100 µM
GI50 [22]: 1.95 µM
TGI [22]: > 100 µM
GI50 [23]: > 100 µM
TGI [23]: > 100 µM
GI50 [24]: > 100 µM
TGI [24]: > 100 µM
GI50 [25]: > 100 µM
TGI [25]: > 100 µM
GI50 [26]: 19.2 µM
TGI [26]: > 100 µM
GI50 [27]: 51.1 µM
TGI [27]: > 100 µM
GI50 [28]: > 100 µM
TGI [28]: > 100 µM
GI50 [29]: 52.6 µM
TGI [29]: > 100 µM
GI50 [30]: 15 µM
TGI [30]: > 100 µM
GI50 [31]: 92.7 µM
TGI [31]: > 100 µM
GI50 [32]: 14.2 µM
TGI [32]: > 100 µM
GI50 [33]: > 100 µM
TGI [33]: > 100 µM
GI50 [34]: 7.22 µM
TGI [34]: > 100 µM
GI50 [35]: 18.1 µM
TGI [35]: > 100 µM
GI50 [36]: 8.91 µM
TGI [36]: > 100 µM
GI50 [37]: 36.3 µM
TGI [37]: > 100 µM
GI50 [38]: 29.7 µM
TGI [38]: > 100 µM
GI50 [39]: 41.4 µM
TGI [39]: > 100 µM
GI50 [40]: 48.8 µM
TGI [40]: > 100 µM
GI50 [41]: > 100 µM
TGI [41]: > 100 µM
GI50 [42]: 58.9 µM
TGI [42]: > 100 µM
GI50 [43]: 34.9 µM
TGI [43]: > 100 µM
GI50 [44]: 24.6 µM
TGI [44]: > 100 µM
GI50 [45]: > 100 µM
TGI [45]: > 100 µM
GI50 [46]: 41.4 µM
TGI [46]: > 100 µM
GI50 [47]: 3.38 µM
TGI [47]: 33.7 µM
GI50 [48]: > 100 µM
TGI [48]: > 100 µM
GI50 [49]: 5.43 µM
TGI [49]: > 100 µM
GI50 [50]: 87.5 µM
TGI [50]: > 100 µM
GI50 [51]: > 100 µM
TGI [51]: > 100 µM
GI50 [52]: > 100 µM
TGI [52]: > 100 µM
GI50 [53]: 51.8 µM
TGI [53]: > 100 µM
GI50 [54]: 29 µM
TGI [54]: > 100 µM
